Measured values as given in patent publication US20250108100A1, “C-TERMINAL FRAGMENT OF APOLIPOPROTEIN E AND APPLICATION THEREOF IN INHIBITING y-SECRETASE ACTIVITY” (SYNPHATEC (SHANGHAI) BIOPHARMACEUTICAL TECHNOLOGY CO., LTD., priority 2022, published 2025).
“Also recorded” adds a separate entry of the source.

Experiments:
[1] = tested on: human APP co-expressed in HEK 293T cells; assay: α-CTF produced by APP co-expressed in HEK 293T cells (Western blot); format: cell-based; settings: for α-CTF produced by co-expressed APP: Western blot, vs GFP control
Experimental: • a) A plasmid expressing the target protein in mammalian cells was constructed, and the protein expression promoter is CAG. • b) The target protein was expressed in HEK 293T cell line. Cells were subcultured one day before transfection, and transfection was performed when the degree of cell adhesion reached 70%-80%. The transfection reagent was lipofectamine2000 (ThermoFisher). • c) 4-6 hours post transfection, the medium were replaced with fresh cell culture medium. • d) 36-48 hours post transfection, the cells were lysed (10% 1M tris-HCl (pH=6.8), 4% SDS, 20% glycerol, 0.01% bromophenol blue), and the protein samples were collected and used for Western blot or stored in a −80° C. freezer. • e) Polyacrylamide gel electrophoresis. Before protein loading, the protein was boiled at 98° C. for 10 min, and then centrifuged at 12000 rpm for 10 min. Electrophoresis: 80V for the upper stacking gel; 120V for the lower separating gel. • f) Protein transfer. The filter paper was soaked in the electrophoresis solution before use, and the PVDF membrane was put in methanol for 10s to activate, and the gel after electrophoresis was taken out from the electrophoresis tank, put in the order of filter paper—PVD membrane—gel-filter paper from bottom to top, and they were put into the transfer instrument, with transferring in constant current at 0.1 A for 70 min. • g) Blocking and antibody incubation: the transferred PVDF membrane was placed in 5% BSA/TBST blocking solution, and blocked on a shaker at room temperature for 1 hour. The primary antibody was used to incubate at 4° C. overnight on a shaker (12-16 h); 1×TBST was used to wash three times, once every 10 minutes; the secondary antibody was used to incubate, shaked at room temperature for 1-2 h; 1×TBST was used to wash three times, once every 10 minutes. • h) Imaging by development: development was performed with ECL chemiluminescence hypersensitive chromogenic reagent.
(§1) Plasmids were transfected in HEK 293T or N2A cells for 36-48 hours and then lysed in cell lysis buffer [10% 1M tris-HCl (pH=6.8), 4% SDS, 20% glycerol, 0.01% bromophenol blue]. Lysates were shaken at room temperature for 10 min, then boiled for 10 min, and centrifuged at 12,000×g for 10 min. Proteins were run on 8% or 12% Tris-glycine SDS-PAGE and transferred to PVDF membranes (Life Technologies). Samples were incubated overnight at 4° C. with primary antibody diluted in 5% BSA buffer (in 1×TBST). After washing 3 times with 1×TBST, they were incubated with secondary antibody diluted in 5% BSA buffer (in 1×TBST) for 2 hours at room temperature. Finally, after washing 3 times with 1×TBST, the signal was detected by ECL Western blotting substrate (Solarbio, PE0010).
(§2) Data were analyzed by GraphPad Prism software (v6) using unpaired, paired, or one-sample t-tests. Aβ40 and Aβ42 levels were normalized to the corresponding GFP controls. α-CTF levels were normalized to FL-APP and corresponding GFP controls. All data are represented as mean±SEM. Statistical significance was defined as p<0.05. One, two, three and four stars (*) in the graph indicate p-values <0.05, <0.01, <0.001 and <0.0001, respectively.

[2] = tested on: endogenously expressed APP in primary cultured mouse neurons; assay: APP metabolite ~14 kD CTF in primary cultured mouse neurons (Western blot); format: cell-based; settings: PF03084014 at 1 uM
[3] = tested on: N100 (NOTCH fragment); assay: γ-cleavage of NOTCH fragment N100 in HEK 293T cells co-expressing γ-secretase (Western blot); format: cell-based; settings: N100-V5 and γ-secretase, PF03084014 at 1 uM
Experimental: as §1

[4] = tested on: APLP1; assay: γ-cleavage of APLP1 expressed in HEK 293T cells (Western blot); format: cell-based; settings: PF03084014 at 1 μM
Experimental: (§3) • a) A plasmid expressing the target protein in mammalian cells was constructed, and the protein expression promoter is CAG. • b) The target protein was expressed in HEK 293T cell line. Cells were subcultured one day before transfection, and transfection was performed when the degree of cell adhesion reached 70%-80%. The transfection reagent was lipofectamine2000 (ThermoFisher). • c) 4-6 hours post transfection, the medium were replaced with fresh cell culture medium. • d) 36-48 hours post transfection, the cells were lysed (10% 1M tris-HCl (pH=6.8), 4% SDS, 20% glycerol, 0.01% bromophenol blue), and the protein samples were collected and used for Western blot or stored in a −80° C. freezer. • e) Polyacrylamide gel electrophoresis. Before protein loading, the protein was boiled at 98° C. for 10 min, and then centrifuged at 12000 rpm for 10 min. Electrophoresis: 80V for the upper stacking gel; 120V for the lower separating gel. • f) Protein transfer. […]
Plasmids were transfected in HEK 293T or N2A cells for 36-48 hours and then lysed in cell lysis buffer [10% 1M tris-HCl (pH=6.8), 4% SDS, 20% glycerol, 0.01% bromophenol blue]. […] Finally, after washing 3 times with 1×TBST, the signal was detected by ECL Western blotting substrate (Solarbio, PE0010).

[5] = biological target: T1, human γ-secretase (Homo sapiens, UniProt P49768); assay: Purified system: cleavage of purified β-CTF by purified γ-secretase to Aβ40 (ELISA); format: biochemical
T1 construct: full-length PS1, FL-PS1; N-terminal fragment of PS1, PS1 NTF; C-terminal fragment of PS1, PS1 CTF; made in house; host or cells: HEK 293T

[6] = tested on: γ-secretase (PS1, PS2) knockout HEK 293T cells; assay: PS1 KO, PS2 KO and PS1/2 dKO HEK 293T cell lines: α-CTF and Aβ40; format: cell-based, human; settings: PS1 single knockout HEK 293T cells
Experimental: as §3

[7] = tested on: human APP and β-secretase co-expressed in HEK 293T cells; assay: HEK 293T cells co-expressing APP and β-secretase (BACE1): Aβ ELISA and β-CTF Western blot; format: cell-based; settings: APP and β-secretase co-expressed, ELISA, vs GFP control
Experimental: The experiment was performed according to the standard procedure in the ELISA analysis kit of Invitrogen Company. • a) The target protein was expressed in HEK 293T cell line. Cells were subcultured one day before transfection, and transfection was performed when the degree of cell adhesion reached 70%-80%. The transfection reagent was lipofectamine2000 (ThermoFisher). • b) 4-6 hours post transfection, medium were replaced with fresh cell culture medium. • c) 36-48 hours post transfection, the cell culture medium was collected, and then the ELISA process was performed or the cell culture medium was frozen in a −80° C. refrigerator. • d) 50 μl of standard samples and experimental samples were added to each well of the 96-well plate. • e) 50 μl of human-derived Aβ40 or Aβ42 or mouse-derived Aβ40 detection antibody was added to each well of the 96-well plate. • f) The above samples were shaken gently and placed at room temperature for 3 hours. • g) The liquid in the well were removed, and the plate was washed 4 times with 1× wash buffer. • h) 100 μl of the buffer containing 1× anti-Rabbit IgG HRP was added. • i) The plate was shaken gently and placed at room temperature for […]. • j) The liquid in the well were removed, and the well was washed 4 times with 1× wash buffer. • k) 100 μl of Stabilized Chromogen was added to each well, and the plate was placed in the dark for 30 minutes at room temperature. • l) 100 μl of Stop Solution was added to each well. • m) The absorbance at 450 nm was measured with a microplate reader. 2.4 qRT-PCR
48 hours after transfection of HEK 293T cells and N2A cells, or 4.5 days after lentivirus infection of neurons, media and lysates were collected. Aβ40 and Aβ42 in the culture medium and cell lysates were detected by an Aβ ELISA kit as indicated in the protocol. (Invitrogen Technology; KHB3481 for human Aβ40, KHB3441 for human Aβ42 and KMB3481 for mouse Aβ40).
as §2

[8] = biological target: T2, ADAM10 (α-secretase) (Homo sapiens, UniProt O14672); assay: ApoE2-APEX2 proximity labeling of co-expressed ADAM10 in HEK 293T cells; format: binding
T2 construct: expressed in transfected cells; host or cells: HEK 293T
T2 sequence (O14672 214-748): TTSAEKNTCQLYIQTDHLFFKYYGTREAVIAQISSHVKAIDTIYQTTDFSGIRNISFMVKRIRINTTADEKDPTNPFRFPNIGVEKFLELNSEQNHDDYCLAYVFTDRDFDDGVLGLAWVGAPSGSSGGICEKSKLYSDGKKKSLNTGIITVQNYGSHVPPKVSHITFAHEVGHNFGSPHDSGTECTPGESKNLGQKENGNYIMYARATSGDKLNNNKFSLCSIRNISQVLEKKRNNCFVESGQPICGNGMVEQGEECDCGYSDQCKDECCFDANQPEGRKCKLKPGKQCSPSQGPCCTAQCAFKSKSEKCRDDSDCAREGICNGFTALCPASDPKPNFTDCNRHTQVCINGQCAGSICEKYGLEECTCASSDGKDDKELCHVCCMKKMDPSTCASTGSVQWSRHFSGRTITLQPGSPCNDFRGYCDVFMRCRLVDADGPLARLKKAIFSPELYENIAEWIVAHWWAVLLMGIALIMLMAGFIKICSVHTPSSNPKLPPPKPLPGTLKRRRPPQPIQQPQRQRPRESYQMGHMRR
Experimental: (§4) A method for detecting protein interactions in living cells by targeting APEX2 was applied as previously described (Hung et al., 2016). Approximately 30 hours after transfection with APEX2 plasmids via Lipofectamine2000 (Invitrogen Technology), HEK 293T cells were incubated in 1 ml of complete medium with or without 250 uM biotinphenol (BP) for 30 minutes at 37° C. Cells were treated with 1 mM H2O2 for 1 min and cells were washed 3 times in quencher solution (10 mM sodium ascorbate, 5 mM Trolox and 10 mM sodium azide solution in 1×DPBS). Cells were lysed in RIPA lysis buffer (1× protein inhibitor cocktail, 1 mM PMSF and 10 mM sodium ascorbate, 5 mM Trolox and 10 mM sodium azide). The lysate was sonicated and centrifuged on ice (12,000×g, 4° C., 10 min), and the supernatant was incubated with streptavidin magnetic beads overnight at 4° C. The beads were collected using a magnetic rack and washed with a series of buffers (twice with RIPA buffer, once with 1M KCl, once with 0.1M Na2CO3, twice with 2 M urea in 10 mM Tris-HCl, pH 8.0, and twice with RIPA lysis buffer. Biotinylated proteins were eluted from the beads by boiling each sample in loading buffer comprising 2 mM biotin and 20 mM DTT for 10 min, and the eluates were collected. Samples proceed to Western blot.

[9] = tested on: endogenously expressed APP; assay: APEX2 proximity labeling of endogenous APP in primary cultured neurons; format: binding; settings: primary cultured rat neurons
[10] = tested on: APP; assay: APEX2 proximity labeling between ApoE and APP in HEK 293T cells; format: binding, human; settings: co-expressed in HEK 293T cells
Experimental: as §4

[11] = biological target: T3, PS2 (Homo sapiens, UniProt P49810); assay: ApoE2-APEX2 proximity labeling of co-expressed PS2 in HEK 293T cells; format: binding
T3 construct: expressed in transfected cells; host or cells: HEK 293T
Experimental: as §4

[12] = tested on: APP co-expressed in mouse neuron cell line N2A; assay: α-CTF produced by APP co-expressed in N2A cells (Western blot); format: cell-based; settings: Western blot, vs GFP control
Experimental: as §1, §2

Sequence of APP (P05067 672-770 limits assumed): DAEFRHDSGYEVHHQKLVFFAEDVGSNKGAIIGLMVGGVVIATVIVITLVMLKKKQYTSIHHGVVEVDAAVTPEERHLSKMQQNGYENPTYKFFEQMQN

## CNC(=O)[C@@H](NC(=O)[C@H](CCCc1ccccc1)[C@H](C)N(O)C=O)C(C)(C)C [GI254023X, reference compound]
[1]; 1 μM
  α-CTF level after ADAM10 inhibitor: about 45%

## CCC[C@H](N[C@H]1CCc2cc(F)cc(F)c2C1)C(=O)Nc1cn(C(C)(C)CNCC(C)(C)C)cn1 [PF03084014]
[2]
  level of ~14 kD CTF (CTF141D) produced by APP metabolism: significantly increased
[1]; APP and PS1 co-expressed, PF03084014 at 1 μM
  α-CTF produced by APP co-expressed with PS1: significantly increases α-CTF; also recorded: can increase the production of α-CTF; also recorded: also increases α-CTF
[3]
  γ-secretase-dependent reduction of N100: reversed this reduction
[4]
  α-like CTF of APLP1: significantly increase the α-like CTF; also recorded: enhancing its cleavage product; also recorded: increased the α-like CTF
[5]; 10 μM inhibitor
  generation of Aβ by γ-secretase and β-CTF: can inhibit the generation of Aβ; also recorded: can be inhibited
[5]; Example 2, legend b49: 1 uM inhibitor
  Aβ40 produced by incubation of γ-secretase with β-CTF: complete blocked
[6]
  α-CTF in PS1 KO cells: further increased α-CTF levels

## ApoA1: another apolipoprotein co-expressed with APP, apolipoprotein A1
[1]
  α-CTF produced by co-expressed APP: failed to alter the levels of α-CTF
[7]
  production of Aβ40: failed to alter

## ApoE2-APEX2: ApoE2 fused to APEX2 (ascorbate peroxidase 2) for proximity labeling
[8]
  biotinylation of co-expressed ADAM10: biotinylated
[9]
  biotinylation of endogenously expressed APP: biotinylates
[10]
  biotinylation of FL-APP and α-CTF: could also be biotinylated
[11]
  biotinylation of co-expressed PS2: biotinylated

## ApoE2-V5: ApoE2 with tag protein V5 (SEQ ID NO: 82) at C-terminal
[1]
  α-CTF produced by co-expressed APP: can significantly increase the α-CTF

## ApoE3: human apolipoprotein E3, full-length 299 amino acid residues, SEQ ID NO: 89
[1]
  α-CTF produced by co-expressed APP: can significantly increase α-CTF; also recorded: significantly increased the α-CTF levels
[12]
  α-CTF produced by co-expressed APP: significantly increased the α-CTF levels
[7]
  production of Aβ40: have no such effect

## ApoE4: human ApoE isoform ApoE4 (Arg112; Arg158)
[1]
  α-CTF produced by co-expressed APP: cannot significantly change α-CTF
[12]
  α-CTF produced by co-expressed APP: failed to alter α-CTF levels
[7]
  production of Aβ40: have no such effect; also recorded: failed to alter

## CT ND3CD25: SEQ ID NO: 32; ApoE CT minus 3 N-terminal and 25 C-terminal residues (EEMGSRTRDRLDEVKEQVAEVRAKLEEQAQQIRLQAEAFQARLKSWFEPLVEDMQR)
[7]
  production of Aβ40: can still significantly reduce Aβ40

## V5-ApoE2: ApoE2 with tag protein V5 (SEQ ID NO: 82) at N-terminal
[1]
  α-CTF produced by co-expressed APP: can significantly increase the α-CTF
